Assay results reported in patent publication US20230190924A1, “ANTIGEN OF ALLERGY AND EPITOPE THEREOF” (HOYU CO., LTD., priority 2017, published 2023).

Test system: IgE antibodies from patients
Test: Epitope mapping (2) overlapping (10-amino-acid peptides) and (3) alanine scanning on peptide arrays
Type: binding, human
Details: for binding to IgE antibodies from patients, sequence comprising a region carboxy-terminally adjacent to the epitope / binding to IgE antibodies from patients, sequence comprising a region amino-terminally adjacent to the epitope: overlapping peptides with flanking sequence; for region within the epitope important for binding to IgE antibodies from patients: procedures (B) overlapping and (C) alanine scanning
Procedure: On the basis of the sequences (SEQ ID NOs: 272-295 for vitellogenin-2 precursor, SEQ ID NOs: 296-303 for vitellogenin-3, SEQ ID NOs: 304-311 for apolipoprotein B precursor, and SEQ ID NOs: 312-318 for vitellogenin-1 or lipovitellin-1) of the peptides bound to an IgE antibody in serum in a patient-specific manner as described above in (A), a library of overlapping peptide fragments (length: 10 amino acids) was prepared using the sequences of the peptides and sequences in which sequences were added so as to flank each peptide in the amino acid sequences of allergen components (amino acid sequences of SEQ ID NO: 59, 106 or 262 for vitellogenin-2 precursor, SEQ ID NO: 2, 13 or 47 for vitellogenin-3, SEQ ID NO: 152, 237 or 251 for apolipoprotein B, and SEQ ID NO: 18 for vitellogenin-1 or lipovitellin-1) comprising the sequences of the peptide to carry out epitope mapping.
The peptides to be synthesized were shifted by one amino acid.
The library was prepared by the same procedure as described above in (A), and the presence or absence of binding of an IgE antibody present in the serum of a patient and a non-egg-allergic subject to each peptide fragment was measured by the same technique as described above. Amino acids at positions where the binding activity against IgE antibodies from patients were lost or decreased in the peptides shifted by one amino acid while binding activity against IgE antibodies from non-egg-allergic subjects arose were confirmed as amino acids adversely affecting the specificity of binding to IgE antibodies.
Chemiluminescence intensity in images obtained by measurement was converted into a numeric value in the same manner as in (A) using ImageQuant TL (GE Healthcare). Numeric values determined from images obtained as a result of using only anti-human IgE antibody-HRP antibody without carrying out the procedures (2) and (3) described above in the subsection titled (3) Spotting of cellulose-bound peptide solution were […] numeric values determined from images obtained from results about the serum of 6 patients. It was determined that a peptide having the resulting value larger than 0 had no binding activity against IgE antibodies when having less than 20% of values obtained using the sequences (amino acid sequences of SEQ ID NO: 59, 106 or 262 for vitellogenin-2, SEQ ID NO: 2, 13 or 47 for vitellogenin-3, SEQ ID NO: 152, 237 or 251 for apolipoprotein B, and SEQ ID NO: 18 for vitellogenin-1 or lipovitellin-1) serving as the basis of overlapping, had binding activity, albeit poor, against IgE antibodies when having 20% or more and less than 50% thereof, had binding activity, albeit somewhat poor, against IgE antibodies when having 50% or more and less than 70% thereof, had almost equivalent binding activity against IgE antibodies when having 70% or more and less than 90% thereof, and had equivalent or good binding activity against IgE antibodies and thus had remaining binding activity against IgE antibodies when having 90% or more thereof.
From the amino acid sequences identified above in (A), a library of peptide fragments in which N-terminal amino acids were substituted one by one by alanine according to a technique called alanine scanning (Non Patent Literature 1) was prepared by the same technique as described above. The presence or absence of binding of an IgE antibody present in the serum of a patient and a non-egg-allergic subject to each peptide fragment was measured by the same technique as described above. Amino acids at positions where the binding activity against IgE antibodies from patients were lost or decreased by the substitution by alanine while binding activity against IgE antibodies from non-egg-allergic subjects arose were confirmed as amino acids important for exertion of original antigenicity, or amino acids influencing exertion of original antigenicity.

Substance | binding to IgE antibodies from patients, sequence comprising a region carboxy-terminally adjacent to the epitope | region within the epitope important for binding to IgE antibodies from patients | other results
SEQ ID NO: 631: sequence comprising a region carboxy-terminally adjacent to epitope 41 (QELLFGRLD; epitope) | binding to IgE antibodies from patients | – | –
SEQ ID NO: 487: sequence comprising a region carboxy-terminally adjacent to epitope 20 (NIKIGSHEI; epitope) | binding to IgE antibodies from patients | – | –
SEQ ID NO: 551: sequence comprising a region carboxy-terminally adjacent to epitope 30 (QRKFVKIE; epitope) | binding to IgE antibodies from patients | – | –
SEQ ID NO: 331: region in epitope 3 (KMKLALKCIG; epitope) | – | important for binding | –
SEQ ID NO: 602: region in epitope 37 (TPGAKVAV; epitope) | – | important for binding | –
SEQ ID NO: 676: sequence comprising a region carboxy-terminally adjacent to epitope 47 (PIEKIQVTI; epitope) | binding to IgE antibodies from patients | – | –
SEQ ID NO: 466: sequence comprising a region carboxy-terminally adjacent to epitope 19 (FNYSMPANCY; epitope) | binding to IgE antibodies from patients | – | –
SEQ ID NO: 451: sequence comprising a region amino-terminally adjacent to epitope 17 (FVTNLTDSSK; epitope) | – | – | binding to IgE antibodies from patients, sequence comprising a region amino-terminally adjacent to the epitope: binding to IgE antibodies from patients
SEQ ID NO: 476: sequence comprising a region carboxy-terminally adjacent to epitope 20 (AINIKIGSHE; epitope) | binding to IgE antibodies from patients | – | –
SEQ ID NO: 346: region in epitope 4 (AWKDPKTVQG; epitope) | – | important for binding | –
SEQ ID NO: 446: region in epitope 16 (PKRKLPGDRA; epitope) | – | important for binding | –
SEQ ID NO: 623: sequence comprising a region amino-terminally adjacent to epitope 40 (GRYLHLAAVN; epitope) | – | – | binding to IgE antibodies from patients, sequence comprising a region amino-terminally adjacent to the epitope: binding to IgE antibodies from patients
SEQ ID NO: 636: region in epitope 41 (SGYLKMFG; epitope) | – | important for binding | –
SEQ ID NO: 388: region in epitope 8 (KALQGWKEL; epitope) | – | important for binding | –
SEQ ID NO: 550: sequence comprising a region amino-terminally adjacent to epitope 30 (EDTCTGACK; epitope) | – | – | binding to IgE antibodies from patients, sequence comprising a region amino-terminally adjacent to the epitope: binding to IgE antibodies from patients
SEQ ID NO: 600: region in epitope 37 (IVTPGAKVAV; epitope) | – | important for binding | –
SEQ ID NO: 569: region in epitope 34 (VKLYPEKDEP; epitope) | – | important for binding | –
SEQ ID NO: 557: sequence comprising a region carboxy-terminally adjacent to epitope 33 (AENLNQFIET; epitope) | binding to IgE antibodies from patients | – | –

Substance | binding to IgE antibodies from patients, sequence comprising a region carboxy-terminally adjacent to the epitope | region within the epitope important for binding to IgE antibodies from patients | other results
SEQ ID NO: 649: region in epitope 42 (DTLQNVLQ; epitope) | – | important for binding | –
SEQ ID NO: 374: region in epitope 7 (ISKLMANSA; epitope) | – | important for binding | –
SEQ ID NO: 425: region in epitope 11 (DVKLKNLKI; epitope) | – | important for binding | –
SEQ ID NO: 609: sequence comprising a region carboxy-terminally adjacent to epitope 38 (LQMSSSV; epitope) | binding to IgE antibodies from patients | – | –
SEQ ID NO: 357: sequence comprising a region carboxy-terminally adjacent to epitope 5 (KLDSMSYRY; epitope) | binding to IgE antibodies from patients | – | –
SEQ ID NO: 672: sequence comprising a region amino-terminally adjacent to epitope 47 (MSFKPVYSDV; epitope) | – | – | binding to IgE antibodies from patients, sequence comprising a region amino-terminally adjacent to the epitope: binding to IgE antibodies from patients
SEQ ID NO: 535: sequence comprising a region carboxy-terminally adjacent to epitope 27 (YDAEKKREY; epitope) | binding to IgE antibodies from patients | – | –
SEQ ID NO: 592: region in epitope 37 (SGIVTPGAK; epitope) | – | important for binding | –
SEQ ID NO: 523: sequence comprising a region carboxy-terminally adjacent to epitope 23 (FVKLEKTVQL; epitope) | binding to IgE antibodies from patients | – | –
SEQ ID NO: 555: region in epitope 33 (AEKYDLKN; epitope) | – | important for binding | –
ELL (epitope) [SEQ ID NO: 637] | – | important for binding | –
SEQ ID NO: 455: region in epitope 17 (TDSSKWKLCA; epitope) | – | important for binding | –
SEQ ID NO: 414: region in epitope 10 (ADRNA; epitope) | – | important for binding | –
SEQ ID NO: 449: region in epitope 16 (RKLPGDRATS; epitope) | – | important for binding | –
SEQ ID NO: 583: sequence comprising a region amino-terminally adjacent to epitope 36 (DIFELGLDG; epitope) | – | – | binding to IgE antibodies from patients, sequence comprising a region amino-terminally adjacent to the epitope: binding to IgE antibodies from patients
SEQ ID NO: 577: sequence comprising a region carboxy-terminally adjacent to epitope 35 (LNPISAKVE; epitope) | binding to IgE antibodies from patients | – | –
SEQ ID NO: 680: region in epitope 47 (SFKPVY; epitope) | – | important for binding | –
